Assay results published in PubChem BioAssay AID248 (DTP/NCI, 2004).
“And” between values parts separate entries of the source, which are not always exact repeats. Equal values may be shown once. Toxic doses and inconclusive results are not listed. Peptide text beside a SMILES is read from it. * marks the point of attachment. Cbz = O=C(OCc1ccccc1)*; OtBu = CC(C)(C)O*

System: L1210 leukemia ip in BDF1 mice, survival T/C
Test: NCI In Vivo Anticancer Drug Screen. Data for tumor model L1210 Leukemia (intraperitoneal) in B6D2F1 (BDF1) mice
Conditions: endpoint: mean survival time, higher = longer survival
Outline: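 Transplanted-tumor mice were given test agent; controls received vehicle only. Survival readings from the two groups were divided (treated over control).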

[1] = dose: 75.0 mg/kg/injection, schedule: Q01DX001 (ip), vehicle: saline
[2] = dose: 150.0 mg/kg/injection, schedule: Q01DX001 (ip), vehicle: saline
[3] = dose: 300.0 mg/kg/injection, schedule: Q01DX001 (ip), vehicle: saline
[4] = dose: 100.0 mg/kg/injection, schedule: Q01DX001 (ip), vehicle: carboxymethylcellulose (CMC)
[5] = dose: 200.0 mg/kg/injection, schedule: Q01DX001 (ip), vehicle: carboxymethylcellulose (CMC)
[6] = dose: 75.0 mg/kg/injection, schedule: Q04DX003 (ip), vehicle: saline
[7] = dose: 50.0 mg/kg/injection, schedule: Q04DX003 (ip), vehicle: saline with Tween-80
[8] = dose: 100.0 mg/kg/injection, schedule: Q01DX009 (ip), vehicle: saline with Tween-80
[9] = dose: 100.0 mg/kg/injection, schedule: Q01DX001 (ip), vehicle: saline
[10] = dose: 200.0 mg/kg/injection, schedule: Q01DX001 (ip), vehicle: saline
[11] = dose: 100.0 mg/kg/injection, schedule: Q04DX003 (ip), vehicle: saline with Tween-80
[12] = dose: 200.0 mg/kg/injection, schedule: Q04DX003 (ip), vehicle: saline with Tween-80
[13] = dose: 400.0 mg/kg/injection, schedule: Q04DX003 (ip), vehicle: saline with Tween-80
[14] = dose: 100.0 mg/kg/injection, schedule: Q04DX003 (ip), vehicle: Klucel (hydroxypropylcellulose) (HPC)
[15] = dose: 200.0 mg/kg/injection, schedule: Q04DX003 (ip), vehicle: Klucel (hydroxypropylcellulose) (HPC)
[16] = dose: 400.0 mg/kg/injection, schedule: Q04DX003 (ip), vehicle: Klucel (hydroxypropylcellulose) (HPC)

O=NN(CC(F)(F)F)C(=O)NC1CCCCC1 (tested in a mixture with another compound)
T/C (dose: 8.0 mg/kg/injection, schedule: Q01DX001 (ip), vehicle: other): 100 % of control | T/C (dose: 16.0 mg/kg/injection, schedule: Q01DX001 (ip), vehicle: other): 95 % of control | T/C (dose: 31.0 mg/kg/injection, schedule: Q01DX001 (ip), vehicle: other): 94 % of control | T/C (dose: 62.0 mg/kg/injection, schedule: Q01DX001 (ip), vehicle: other): 97 % of control | T/C (dose: 125.0 mg/kg/injection, schedule: Q01DX001 (ip), vehicle: other): 101 % of control | T/C (dose: 250.0 mg/kg/injection, schedule: Q01DX001 (ip), vehicle: other): 94 % of control | T/C (dose: 375.0 mg/kg/injection, schedule: Q01DX001 (ip), vehicle: other): 101 % of control

CC1CN1CO (stereo not given)
T/C [1]: 109 % of control

NP(=S)(Oc1ccc(Cl)cc1)Oc1ccc(Cl)cc1
T/C (dose: 6.25 mg/kg/injection, schedule: Q01DX009 (ip), vehicle: gum acacia): 103 % of control | T/C (dose: 12.5 mg/kg/injection, schedule: Q01DX009 (ip), vehicle: gum acacia): 110 % of control | T/C (dose: 12.5 mg/kg/injection, schedule: Q04DX002 (ip), vehicle: gum acacia): 87 % of control | T/C (dose: 25.0 mg/kg/injection, schedule: Q01DX009 (ip), vehicle: gum acacia): 100 % of control | T/C (dose: 25.0 mg/kg/injection, schedule: Q04DX002 (ip), vehicle: gum acacia): 87 % of control | T/C (dose: 100.0 mg/kg/injection, schedule: Q04DX002 (ip), vehicle: saline): 93 % of control | T/C (dose: 200.0 mg/kg/injection, schedule: Q04DX002 (ip), vehicle: saline): 101 % of control | T/C (dose: 400.0 mg/kg/injection, schedule: Q04DX002 (ip), vehicle: saline): 96 % of control

Cc1c(Cl)cccc1N=C=S
T/C [1]: 95 % of control | T/C [2]: 97 % of control | T/C [3]: 100 % of control

C/C(=N/O)c1ccc2c(c1)Cc1ccccc1-2
T/C [4]: 105 % of control | T/C [5]: 100 % of control | T/C (dose: 400.0 mg/kg/injection, schedule: Q01DX001 (ip), vehicle: carboxymethylcellulose (CMC)): 98 % of control

Cc1ccc(S(=O)(=O)OCC(O)C(OC(=O)c2ccccc2)C(OC(=O)c2ccccc2)C(CO)OC(=O)c2ccccc2)cc1 (stereo not given)
T/C (dose: 25.0 mg/kg/injection, schedule: Q01DX001 (ip), vehicle: saline with Tween-80): 92 % of control | T/C (dose: 50.0 mg/kg/injection, schedule: Q01DX001 (ip), vehicle: saline with Tween-80): 95 % of control | T/C (dose: 100.0 mg/kg/injection, schedule: Q01DX001 (ip), vehicle: saline with Tween-80): 88 % of control and 89 % of control

CCCCCC[N+]1(C)CC2C3C=CC(C3)C2C1 (stereo not given)
T/C (dose: 12.5 mg/kg/injection, schedule: Q04DX003 (ip), vehicle: saline): 103 % of control | T/C (dose: 25.0 mg/kg/injection, schedule: Q04DX003 (ip), vehicle: saline): 97 % of control | T/C (dose: 50.0 mg/kg/injection, schedule: Q04DX003 (ip), vehicle: saline): 97 % of control | T/C [6]: 92 % of control

C=CCn1c2ccccc2c2c(C)c3cnccc3c(C)c21
T/C (dose: 25.0 mg/kg/injection, schedule: Q01DX009 (ip), vehicle: saline with Tween-80): 97 % of control | T/C (dose: 37.5 mg/kg/injection, schedule: Q04DX003 (ip), vehicle: saline): 111 % of control | T/C (dose: 50.0 mg/kg/injection, schedule: Q01DX009 (ip), vehicle: saline with Tween-80): 102 % of control | T/C [7]: 119 % of control | T/C (dose: 75.0 mg/kg/injection, schedule: Q01DX009 (ip), vehicle: saline with Tween-80): 186 % of control | T/C [6]: 163 % of control | T/C [8]: 111 % of control | T/C (dose: 125.0 mg/kg/injection, schedule: Q04DX003 (ip), vehicle: saline with Tween-80): 184 % of control | T/C (dose: 150.0 mg/kg/injection, schedule: Q01DX009 (ip), vehicle: saline with Tween-80): 172 % of control | T/C (dose: 300.0 mg/kg/injection, schedule: Q04DX003 (ip), vehicle: saline): 156 % of control

CCOC(=O)C(C(=O)O)C(=O)CCO (stereo not given)
T/C [9]: 98 % of control | T/C [10]: 94 % of control

Cc1ccccc1C1(O)c2ccccc2-c2ccccc21
T/C [11]: 98 % of control | T/C [12]: 96 % of control | T/C [13]: 96 % of control

O=Nc1nc2ncccn2c1-c1ccccc1
T/C (dose: 50.0 mg/kg/injection, schedule: Q01DX001 (ip), vehicle: saline): 97 % of control | T/C [9]: 101 % of control | T/C [10]: 103 % of control | T/C (dose: 400.0 mg/kg/injection, schedule: Q01DX001 (ip), vehicle: saline): 109 % of control

c1ccc2cc(-c3csc4ccccc34)ccc2c1
T/C (dose: 100.0 mg/kg/injection, schedule: Q01DX009 (ip), vehicle: Klucel (hydroxypropylcellulose) (HPC)): 104 % of control | T/C [14]: 110 % of control | T/C (dose: 200.0 mg/kg/injection, schedule: Q01DX009 (ip), vehicle: Klucel (hydroxypropylcellulose) (HPC)): 94 % of control | T/C [15]: 97 % of control | T/C (dose: 400.0 mg/kg/injection, schedule: Q01DX009 (ip), vehicle: Klucel (hydroxypropylcellulose) (HPC)): 103 % of control | T/C [16]: 100 % of control

CCCCC(=O)c1ccc(Cl)cc1
T/C [14]: 103 % of control | T/C [15]: 111 % of control | T/C [16]: 104 % of control

O=C(Nc1ncc([N+](=O)[O-])s1)c1ccc(Cl)s1
T/C (dose: 6.25 mg/kg/injection, schedule: Q04DX002 (ip), vehicle: Klucel (hydroxypropylcellulose) (HPC)): 94 % of control | T/C (dose: 12.5 mg/kg/injection, schedule: Q04DX002 (ip), vehicle: Klucel (hydroxypropylcellulose) (HPC)): 91 % of control | T/C (dose: 25.0 mg/kg/injection, schedule: Q04DX002 (ip), vehicle: Klucel (hydroxypropylcellulose) (HPC)): 87 % of control

CC(C)CC(NC(=O)CNC(=O)OCc1ccccc1)C(=O)O (stereo not given)
T/C [11]: 101 % of control | T/C [12]: 97 % of control | T/C [13]: 91 % of control

CCCC(NC)C(CC)CN (stereo not given)
T/C (dose: 50.0 mg/kg/injection, schedule: Q01DX001 (ip), vehicle: carboxymethylcellulose (CMC)): 105 % of control and 120 % of control | T/C [1]: 97 % of control | T/C (dose: 88.0 mg/kg/injection, schedule: Q01DX001 (ip), vehicle: saline): 109 % of control | T/C [4]: 104 % of control | T/C (dose: 133.0 mg/kg/injection, schedule: Q01DX001 (ip), vehicle: saline): 101 % of control | T/C [2]: 97 % of control | T/C [5]: 93 % of control and 242 % of control | T/C [10]: 101 % of control

Cc1cc2c(cc1C)N(C(=O)CN1CCCCC1)CC(=O)N2
T/C [1]: 93 % of control | T/C [2]: 91 % of control | T/C [3]: 93 % of control

COC(=O)C(CCC(=O)OC(C)(C)C)NC(=O)C(NC(=O)OCc1ccccc1)C(C)C (stereo not drawn) (Cbz-Val-Glu(OtBu)-OMe; configuration not given here)
T/C [8]: 98 % of control | T/C [11]: 92 % of control | T/C (dose: 200.0 mg/kg/injection, schedule: Q01DX009 (ip), vehicle: saline with Tween-80): 89 % of control | T/C [12]: 95 % of control | T/C (dose: 400.0 mg/kg/injection, schedule: Q01DX009 (ip), vehicle: saline with Tween-80): 98 % of control | T/C [13]: 95 % of control

c1ccc(CC2NCCc3ccccc32)cc1 (stereo not given)
T/C (dose: 25.0 mg/kg/injection, schedule: Q04DX003 (ip), vehicle: acetone): 102 % of control | T/C (dose: 25.0 mg/kg/injection, schedule: Q04DX003 (ip), vehicle: saline with Tween-80): 99 % of control | T/C (dose: 50.0 mg/kg/injection, schedule: Q04DX003 (ip), vehicle: acetone): 102 % of control | T/C [7]: 94 % of control | T/C (dose: 100.0 mg/kg/injection, schedule: Q01DX001 (ip), vehicle: acetone): 89 % of control | T/C (dose: 100.0 mg/kg/injection, schedule: Q04DX003 (ip), vehicle: acetone): 91 % of control | T/C [11]: 102 % of control

COc1ccc(C(=O)c2ccccc2)cc1
T/C (dose: 100.0 mg/kg/injection, schedule: Q04DX002 (ip), vehicle: Klucel (hydroxypropylcellulose) (HPC)): 115 % of control | T/C (dose: 200.0 mg/kg/injection, schedule: Q04DX002 (ip), vehicle: Klucel (hydroxypropylcellulose) (HPC)): 86 % of control | T/C (dose: 400.0 mg/kg/injection, schedule: Q04DX002 (ip), vehicle: Klucel (hydroxypropylcellulose) (HPC)): 86 % of control
